Laboratory results published in patent US12516049B2, “Sulfonylurea ring substituted monocyclic β-lactam antibiotics” (priority 2019, dated 2026).
In brackets after ≈: the same amount, converted by molar mass. Read-outs that look alike come from different tables or passages of the source.

Tests used:
Assay type in all cases: cell-based
[1] = test system: clinically isolated carbapenem-resistant enterobacteriaceae; conditions: single drug; panel of 26 strains of Table 2
Procedure: (§1) The minimum inhibitory concentration (MIC) of the compound and combination with β-lactamase (MBLs) inhibitors against clinically isolated carbapenem-resistant enterobacteriaceae was determined by the two-fold agar dilution method to determine the activity of the compound to be tested against strains producing MBLs. […] The mother liquor was diluted to the concentration to be tested by double dilution method, an inoculum liquid was prepared by direct bacterial suspension method, 1 mL of the prepared bacteria solution was withdrawn and putted into the inoculation tube, and a positioning needle and an inoculation needle were installed. A bacterial multi-point inoculator was started for inoculation. After the bacterial solution was absorbed by the agar, the plate was placed upside down in an incubator at 37° C. for 16-20 hours, and the results were observed. The average of three tests was taken.

[2] = test system: K.p CRE16; experiment: MIC, two-fold agar dilution, clinical isolate; conditions: single drug, average of three tests
Procedure: (§2) The minimum inhibitory concentration (MIC) of the compound and combination with β-lactamase (MBLs) inhibitors against clinically isolated carbapenem-resistant enterobacteriaceae was determined by the two-fold agar dilution method to determine the activity of the compound to be tested against strains producing MBLs. Antibiotics and enzyme inhibitors were weighed separately and dissolved in sterile ultrapure water or dimethyl sulfoxide to prepare mother liquor, MHA medium was prepared, pH was adjusted to 7.2-7.4, and it was sterilized at 121° C. for 15 minutes and placed in a 55° C. water bath for heat preservation. The mother liquor was diluted to the concentration to be tested by double dilution method, an inoculum liquid was prepared by direct bacterial suspension method, 1 mL of the prepared bacteria solution was withdrawn and putted into the inoculation tube, and a positioning needle and an inoculation needle were installed. A bacterial multi-point inoculator was started for inoculation. After the bacterial solution was absorbed by the agar, the plate was placed upside down in an incubator at 37° C. for 16-20 hours, and the results were observed. The average of three tests was taken.

[3] = test system: E.coli 020033; experiment: MIC, two-fold agar dilution, clinical isolate; conditions: Escherichia coli, single drug, average of three tests
Procedure: as §2

[4] = test system: K.p C904; experiment: MIC, two-fold agar dilution, clinical isolate
Procedure: as §2

[5] = test system: E.coli 020028; experiment: MIC, two-fold agar dilution, clinical isolate; conditions: Escherichia coli, single drug, average of three tests
Procedure: as §2

[6] = test system: Morganella morganii C1274; experiment: MIC, two-fold agar dilution, clinical isolate; conditions: Morganella morganii C1274; single drug; average of three tests; read-out: MIC
Procedure: as §2

[7] = test system: K.p CRE11; experiment: MIC, two-fold agar dilution, clinical isolate
Procedure: as §2

[8] = test system: K.p HX77; experiment: MIC, two-fold agar dilution, clinical isolate; conditions: single drug, average of three tests
Procedure: as §2

[9] = test system: K.p CRE12; experiment: MIC, two-fold agar dilution, clinical isolate; conditions: single drug, average of three tests
Procedure: as §2

[10] = test system: K.p HX37; experiment: MIC, two-fold agar dilution, clinical isolate
Procedure: as §2

[11] = test system: E.coli CRE28; experiment: MIC, two-fold agar dilution, clinical isolate; conditions: Escherichia coli
Procedure: as §2

[12] = test system: E.coli CRE21; experiment: MIC, two-fold agar dilution, clinical isolate; conditions: Escherichia coli
Procedure: as §2

[13] = test system: K.p BAA-2470; experiment: MIC, two-fold agar dilution, clinical isolate
Procedure: as §2

[14] = test system: K.p 115004; experiment: MIC, two-fold agar dilution, clinical isolate; conditions: K.p 115004; single drug; average of three tests; read-out: MIC
Procedure: as §2

[15] = test system: K.p 11544; experiment: MIC, two-fold agar dilution, clinical isolate
Procedure: as §2

[16] = test system: E.coli 020031; experiment: MIC, two-fold agar dilution, clinical isolate; conditions: Escherichia coli, single drug, average of three tests
Procedure: as §2

[17] = test system: K.p 13249; experiment: MIC, two-fold agar dilution, clinical isolate
Procedure: as §2

[18] = test system: E.coli CRE18; experiment: MIC, two-fold agar dilution, clinical isolate; conditions: Escherichia coli
Procedure: as §2

[19] = test system: E.coli C1569; experiment: MIC, two-fold agar dilution, clinical isolate; conditions: Escherichia coli, single drug, average of three tests
Procedure: as §2

[20] = test system: E.coli 115103; experiment: MIC, two-fold agar dilution, clinical isolate; conditions: Escherichia coli
Procedure: as §2

[21] = test system: E.coli BAA-2452; experiment: MIC, two-fold agar dilution, clinical isolate; conditions: Escherichia coli, BAA2452; E.coli BAA-2452; single drug; average of three tests; read-out: MIC
Procedure: as §2

[22] = test system: K.p 6777; experiment: MIC, two-fold agar dilution, clinical isolate
Procedure: as §2

[23] = test system: K.p 090339; experiment: MIC, two-fold agar dilution, clinical isolate; conditions: K.p 090339; single drug; average of three tests; read-out: MIC
Procedure: as §2

[24] = test system: E.coli CRE23; experiment: MIC, two-fold agar dilution, clinical isolate; conditions: Escherichia coli
Procedure: as §2

[25] = test system: Escherichia coli ATCC 25922; experiment: MIC, micro-liquid dilution (CLSI); conditions: ATCC25922, E. coli ATCC 25922, 20-24 h, 37° C.
Procedure: (§3) Three strains of Klebsiella pneumonia, ATCC BAA-205 (TEM-1/SHV-1/SHV-12), ATCC BAA-1705 (KPC-2), ATCC BAA-2470 (NDM-1), Enterobacter cloacae ATCC BAA-1143 (AmpC), two strains of Escherichia coli ATCC BAA-2523 (OXA-48), ATCC 25922 were used to determine the minimum inhibitory concentration (MIC) of each of the compounds by micro-liquid dilution method according to the Institute of Clinical and Laboratory Standard (CLSI) requirements. […]. The plate was placed upside down at 37° C. and the MIC value was read after 20-24 h of incubation, and the lowest drug concentration that inhibited the growth of bacteria was set as MIC. Colony-Forming Units (CFU) refer to the total number of bacterial colonies per unit volume.

[26] = test system: Enterobacter cloacae ATCC BAA-1143 (AmpC); experiment: MIC, micro-liquid dilution (CLSI); conditions: ATCCBAA1143, E. cloacae ATCC BAA-1143, Class C (AmpC), 20-24 h, 37° C.
Procedure: as §3

[27] = test system: Escherichia coli ATCC BAA-2523 (OXA-48); experiment: MIC, micro-liquid dilution (CLSI); conditions: ATCCBAA2523, E. coli ATCC BAA-2523, Class D (OXA-48), 20-24 h, 37° C., read-out: MIC
Procedure: as §3

[28] = test system: Klebsiella pneumonia ATCC BAA-2470 (NDM-1); experiment: MIC, micro-liquid dilution (CLSI); conditions: Klebsiella pneumoniae, ATCCBAA2470; K. pneumonia ATCC BAA-2470, Class B (NDM-1); 20-24 h, 37° C.
Procedure: as §3

[29] = test system: Klebsiella pneumonia ATCC BAA-205 (TEM-1/SHV-1/SHV-12); experiment: MIC, micro-liquid dilution (CLSI); conditions: Klebsiella pneumoniae, ATCCBAA205; K. pneumonia ATCC BAA-205, Class A (TEM-1/SHV-1/SHV-12); 20-24 h, 37° C.
Procedure: as §3

[30] = test system: Klebsiella pneumonia ATCC BAA-1705 (KPC-2); experiment: MIC, micro-liquid dilution (CLSI); conditions: Klebsiella pneumoniae, ATCCBAA1705; K. pneumonia ATCC BAA-1705, Class A (KPC-2); 20-24 h, 37° C.
Procedure: as §3

[31] = test system: E.coli 115101; experiment: MIC, two-fold agar dilution, clinical isolate; conditions: Escherichia coli, 115101
Procedure: as §1

[32] = test system: E.coli 115105; experiment: MIC, two-fold agar dilution, clinical isolate; conditions: Escherichia coli, single drug, average of three tests
Procedure: as §1

[33] = test system: K.p HX30; experiment: MIC, two-fold agar dilution, clinical isolate
Procedure: as §1

MIC [25] [µg/mL] | MIC [26] [µg/mL] | MIC [27] [µg/mL] | MIC [28] [µg/mL] | MIC [29] [µg/mL] | MIC [30] [µg/mL] | SMILES | MIC [2] [µg/mL] | MIC [3] [µg/mL] | MIC [5] [µg/mL] | MIC [6] [µg/mL] | MIC [8] [µg/mL] | MIC [9] [µg/mL] | MIC [14] [µg/mL] | MIC [16] [µg/mL] | MIC [19] [µg/mL] | MIC [21] [µg/mL] | MIC [23] [µg/mL] | also measured
– | – | – | – | – | – | C[C@@H](O)[C@H]1C(=O)N2C(C(=O)O)=C(S[C@@H]3CN[C@H](C(=O)N(C)C)C3)[C@H](C)[C@H]12 [Meropenem] | 8 | 32 | 16 | 2 | 16 | 16 | 16 | 32 | 16 | 16 | 16 | MIC50 [1]: 16 µg/mL; MIC ([4]; K.p C904, single drug, average of three tests, read-out: MIC): 16 µg/mL; MIC ([7]; K.p CRE11, single drug, average of three tests, read-out: MIC): 32 µg/mL; MIC ([10]; K.p HX37, single drug, average of three tests, read-out: MIC): 32 µg/mL; MIC ([11]; E.coli CRE28, single drug, average of three tests, read-out: MIC): 32 µg/mL; MIC ([12]; E.coli CRE21, single drug, average of three tests, read-out: MIC): 64 µg/mL; MIC ([13]; K.p BAA-2470, single drug, average of three tests, read-out: MIC): 32 µg/mL; MIC ([15]; K.p 11544, single drug, average of three tests, read-out: MIC): 16 µg/mL; MIC ([17]; K.p 13249, single drug, average of three tests, read-out: MIC): 32 µg/mL; MIC ([18]; E.coli CRE18, single drug, average of three tests, read-out: MIC): 32 µg/mL; MIC ([20]; E.coli 115103, single drug, average of three tests, read-out: MIC): 16 µg/mL; MIC ([22]; K.p 6777, single drug, average of three tests, read-out: MIC): 8 µg/mL; MIC ([24]; E.coli CRE23, single drug, average of three tests, read-out: MIC): 32 µg/mL
4 (≈ 6.39 µM) | 2 (≈ 3.2 µM) | 0.25 (≈ 0.4 µM) | 1 (≈ 1.6 µM) | 2 (≈ 3.2 µM) | 2 (≈ 3.2 µM) | CC(=O)OC[C@@H]1CN(C[C@@H]2[C@H](NC(=O)/C(=N\OC3(C(=O)O)CC3)c3csc(N)n3)C(=O)N2S(=O)(=O)O)S(=O)(=O)N1 [Compound 3] | – | – | – | – | – | – | – | – | – | – | – | –
– | – | – | – | – | – | C[C@H]1[C@H](NC(=O)/C(=N\OC(C)(C)C(=O)O)c2csc(N)n2)C(=O)N1S(=O)(=O)O [Aztreonam] | 64 | 32 | 16 | 4 | 16 | 4 | 64 | 4 | 1 | 16 | 64 | MIC [4]: > 128 µg/mL; MIC [7]: 128 µg/mL; MIC [10]: > 128 µg/mL; MIC ([11]; CRE28): > 128 µg/mL; MIC ([12]; CRE21): > 128 µg/mL; MIC [13]: > 128 µg/mL; MIC [15]: > 128 µg/mL; MIC [17]: > 128 µg/mL; MIC ([18]; CRE18): > 128 µg/mL; MIC [20]; 115103: 128 µg/mL; MIC [22]: 128 µg/mL; MIC ([24]; CRE23): > 128 µg/mL; MIC [31]: > 128 µg/mL; MIC [32]: 16 µg/mL; MIC [33]: > 128 µg/mL
4 (≈ 7.05 µM) | 2 (≈ 3.52 µM) | 1 (≈ 1.76 µM) | 1 (≈ 1.76 µM) | 1 (≈ 1.76 µM) | 2 (≈ 3.52 µM) | Nc1nc(/C(=N/OC2(C(=O)O)CC2)C(=O)N[C@@H]2C(=O)N(S(=O)(=O)O)[C@@H]2CN2CCCNS2(=O)=O)cs1 [Compound 2] | – | – | – | – | – | – | – | – | – | – | – | –
